{
  "source": "paper PMC9303975",
  "about": "(Proceedings of the National Academy of Sciences of the …, 2022)",
  "key": {"[1]": {"tested_on": "PLA2R autoantibody from one MN patient serum", "experiment": "Peptide microarray binding detection (PEPperCHIP)", "conditions": "MN patient serum at 1:100, goat anti-human IgG DyLight 680", "excerpt": "To probe the importance of the amino acids within the PLA2R epitope in human autoantibody recognition, we utilized a printed peptide microarray. This peptide laser printing technology allows the synthesis of peptides (between 15 and 20 amino acids in length) directly onto glass slides followed by single substitution scans, which involves the stepwise substitution of all amino acid positions of a given epitope with all 20 main amino acids (Fig. 1A). We first synthesized a stepped series of truncated peptides across the originally discovered 31mer epitope (at both N- and C-terminus end) in order to identify the minimum sequence retaining high-affinity binding. […] We have previously shown that the epitope peptide is a disulphide-bonded structure, and its reactivity to human anti-PLA2R is sensitive to reduction ([8]). […] The substitution scan of these two regions was performed by exchange of the native amino acids with all 20 main amino acids. […] To further investigate this, a second array (platform 3) combined both parts of the N-terminal region and the cyclic C-terminal region. […]\nPeptide microarrays were generated and performed by PEPperPRINT (Heidelberg, Germany) ([31], [32]). […] Peptide spot intensity quantification and peptide annotation were executed with PepSlide Analyzer. […]"}, "[2]": {"tested_on": "PLA2R autoantibody (27 MN anti-PLA2R positive sera)", "experiment": "BLI direct interaction assay: immobilized peptides with anti-PLA2R positive sera", "type": "binding, human", "conditions": "BLI (Octet Red); 27 MN sera at 1/200; dissociation rate from Hill-1 plot; n = 3", "description": "BLI experiments were conducted using an Octet Red (ForteBio). Octet CDL sensors (coated with a thin layer of carboxymethyl dextran) were activated by EDC/NHS, at the same concentration used for SPR, for 300 s with 1000 rpm agitation. […] Following immobilization, sensors were deactivated in 1 M ethanolamine for 300 s to prevent further immobilization of proteins to the samples sensors.\nThe association phase was measured for 450 s with 1000 rpm agitation. The dissociation phase for each sensor was subsequently measured by incubating the sensors into Hepes-sera buffer for 1200 s at 1000 rpm. Regeneration of the sensor was achieved by six successive washes in 10 mM NaOH for 15 s followed by 15 s in Milli-Q water. The immobilized sensor responses to anti-PLA2R IgG were calibrated against nonspecific binding of each immobilized sensor to Hepes-sera buffer.\nThe dissociation phase of each response was collected and plotted, and the dissociation rate was calculated (kd) as the 1/k value produced from a Hill-1 plot analysis. The average dissociation rate was calculated for each peptide sensor binding to the 27 MN patients’ sera. Dissociation rates with an R^2 value <0.9 or χ^2 value >3 were excluded from the data due to poor fitting."}, "[3]": {"tested_on": "human anti-PLA2R antibody (MN anti-PLA2R IgG) binding to PLA2R-NC3", "experiment": "SPR inhibition assay: peptides block anti-PLA2R IgG binding to immobilized PLA2R-NC3", "conditions": "SPR (ProteOn), 1 µM peptide, anti-PLA2R IgG 1/100 in Hepes buffer pH 7.2, maximal response, n = 3", "protocol": "Real-time binding analysis was evaluated using an SPR instrument (ProteOn, BIO-RAD). ProteOn GLC sensor lanes were preactivated by injection of 18.75 mg/mL EDC (1-ethyl-3-(3-dimethylaminopropyl) carbodiimide) and 1.4 mg/mL NHS (N-hydroxysuccinimide, Sigma-Aldrich). Once activated, 20 μg/mL PLA2R-NC3 in 10 mM sodium acetate buffer (pH 4.5) (BIO-RAD) was injected onto sensor chip lanes for immobilization. Ethanolamine was injected to deactivate the sensors from further immobilization.\nSubsequently, all AIPs were tested in triplicate using the same concentration. […] Hepes buffer was subsequently flown over, and the dissociation phase was measured for 400 s. The sensors were then regenerated with two successive injections (40 s) of 10 mM NaOH (sodium hydroxide). Each measured response of anti-PLA2R IgG with or without peptides to immobilized PLA2R-NC3 protein was calibrated against nonspecific binding of the sensor to Hepes buffer and Hepes buffer containing antibodies with or without peptides to a blank immobilized sensor. The maximal response was measured for all conditions of anti-PLA2R IgG and percentage inhibition of PLA2R autoantibody binding to PLA2R by AIPs calculated."}, "PLA2R autoantibody": {"tested_on": "PLA2R autoantibody", "experiment": "Autoantibody binding to Endo180 protein (western blot and dot blot, Fig. S2)", "design": "species or system human", "conditions": "western blot non reduced and reduced; dot blot under native condition", "description": "To determine the contribution of the conformation of the epitope sequence, the binding of the autoantibody was tested against Endo180 protein, another member of the mannose receptor family with high structural homology of the PLA2R CysR domain (SI Appendix, Fig. S2).\nFig. S2: PLA2R autoantibodies incapable of binding to Endo180 potentially due to lack of surface cavity in the P28mer epitope region.\nA) Sequences from the P28mer region in the mannose receptor family proteins were subjected to consensus mapping by weblogo. Residues conserved in all mannose receptor proteins are indicated with *. B) Western blot analysis of PLA2R and Endo180 under non reduced and reduced conditions using anti-His and human PLA2R autoantibody. C) Dot blot analysis of PLA2R and […]\nPLA2R autoantibody under native condition. D) Comparison of the PLA2R, DEC -205 (5ao5) and Endo-180 (7jpt) structures and their overlays. The RSMD values generated were 3.184 Å RMSD for analysis between PLA2R and Endo180, 3.558 Å RMSD for DEC-205 and Endo180, where Endo180 was used as reference.\n(1 picture or pasted object on this page, not shown here)"}},
  "note": "Bridges are numbered along the chain shown (N, C = ends). Where no end group is shown, it is not given here.",
  "data": [
    {"molecule": "CIQAGKSVLTLENCK (disulfide 1-14 (inferred)) [platform 2, microarray-printed cyclic region […] of P28mer, cyclized by disulphide]", "values": [
      {"measurement": "autoantibody binding to printed peptide (fluorescence intensity)", "setting": "[1]", "result": "no significant binding"}
    ]},
    {"molecule": "VIQSESLK [AIP1]", "values": [
      {"measurement": "binding affinity of immobilized peptide to anti-PLA2R positive sera, relative to P28mer", "setting": "[2]", "result": "lower affinity than the P28mer"},
      {"measurement": "percentage inhibition of PLA2R autoantibody binding to PLA2R", "setting": "[3]", "result": "~40", "unit": "%"}
    ]},
    {"molecule": "KGIFVIQSESLKKC [platform 1, microarray-printed linear region […] of P28mer]", "values": [
      {"measurement": "autoantibody binding to printed peptide (fluorescence intensity)", "setting": "[1]", "result": "no significant binding"}
    ]},
    {"molecule": "SVLTLENCK [AIP2]", "values": [
      {"measurement": "binding affinity of immobilized peptide to anti-PLA2R positive sera, relative to P28mer", "setting": "[2]", "result": "lower affinity than the P28mer"}
    ]},
    {"molecule": "Endo180: mannose receptor family protein with high structural homology to the PLA2R CysR domain (protein, UniProt Q9UBG0 31-1479, looked up) C-type mannose receptor 2: GAPGDAALPEPNVFLIFSHGLQGCLEAQGGQVRVTPACNTSLPAQRWKWVSRNRLFNLGTMQCLGTGWPGTNTTASLGMYECDREALNLRWHCRTLGDQLSLLLGARTSNISKPGTLERGDQTRSGQWRIYGSEEDLCALPYHEVYTIQGNSHGKPCTIPFKYDNQWFHGCTSTGREDGHLWCATTQDYGKDERWGFCPIKSNDCETFWDKDQLTDSCYQFNFQSTLSWREAWASCEQQGADLLSITEIHEQTYINGLLTGYSSTLWIGLNDLDTSGGWQWSDNSPLKYLNWESDQPDNPSEENCGVIRTESSGGWQNRDCSIALPYVCKKKPNATAEPTPPDRWANVKVECEPSWQPFQGHCYRLQAEKRSWQESKKACLRGGGDLVSIHSMAELEFITKQIKQEVEELWIGLNDLKLQMNFEWSDGSLVSFTHWHPFEPNNFRDSLEDCVTIWGPEGRWNDSPCNQSLPSICKKAGQLSQGAAEEDHGCRKGWTWHSPSCYWLGEDQVTYSEARRLCTDHGSQLVTITNRFEQAFVSSLIYNWEGEYFWTALQDLNSTGSFFWLSGDEVMYTHWNRDQPGYSRGGCVALATGSAMGLWEVKNCTSFRARYICRQSLGTPVTPELPGPDPTPSLTGSCPQGWASDTKLRYCYKVFSSERLQDKKSWVQAQGACQELGAQLLSLASYEEEHFVANMLNKIFGESEPEIHEQHWFWIGLNRRDPRGGQSWRWSDGVGFSYHNFDRSRHDDDDIRGCAVLDLASLQWVAMQCDTQLDWICKIPRGTDVREPDDSPQGRREWLRFQEAEYKFFEHHSTWAQAQRICTWFQAELTSVHSQAELDFLSHNLQKFSRAQEQHWWIGLHTSESDGRFRWTDGSIINFISWAPGKPRPVGKDKKCVYMTASREDWGDQRCLTALPYICKRSNVTKETQPPDLPTTALGGCPSDWIQFLNKCFQVQGQEPQSRVKWSEAQFSCEQQEAQLVTITNPLEQAFITASLPNVTFDLWIGLHASQRDFQWVEQEPLMYANWAPGEPSGPSPAPSGNKPTSCAVVLHSPSAHFTGRWDDRSCTEETHGFICQKGTDPSLSPSPAALPPAPGTELSYLNGTFRLLQKPLRWHDALLLCESRNASLAYVPDPYTQAFLTQAARGLRTPLWIGLAGEEGSRRYSWVSEEPLNYVGWQDGEPQQPGGCTYVDVDGAWRTTSCDTKLQGAVCGVSSGPPPPRRISYHGSCPQGLADSAWIPFREHCYSFHMELLLGHKEARQRCQRAGGAVLSILDEMENVFVWEHLQSYEGQSRGAWLGMNFNPKGGTLVWQDNTAVNYSNWGPPGLGPSMLSHNSCYWIQSNSGLWRPGACTNITMGVVCKLPRAEQSSFSPSALPENPAALVVVLMAVLLLLALLTAALILYRRRQSIERGAFEGARYSRSSSSPTEATEKNILVSDMEMNEQQE", "values": [
      {"measurement": "interaction of the autoantibody with the protein", "setting": "PLA2R autoantibody", "result": "No interaction was detected"}
    ]}
  ]
}
